From patent US10294202B2, “Pyrrolidinones as herbicides” (FMC Corporation, priority 2013, dated 2019)
Read-outs that look alike come from different tables or passages of the source.

What was measured:
[1] = tested on: ducksalad; test: Test B flooded paddy test; assay type: in vivo, Heteranthera limosa; settings: Flood, scale of 0 to 100 where 0 is no effect and 100 is complete control
In short: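 Plants were grown to the 2-leaf stage, then pots were flooded to 3 cm above the soil and compound was applied directly into the paddy water, with that depth held throughout. After 13 to 15 days in a greenhouse, injury was rated visually against untreated controls on a 0 to 100 scale (100 = complete control).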

[2] = tested on: barnyardgrass; test: Test A pre-/postemergence herbicide test; assay type: in vivo, Echinochloa crus-galli; settings: for pest or weed control at 500 g/ha: 0 to 100 scale (0 no effect, 100 complete control)
In short: (§1)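 Seeds sown in loam soil/sand blend received a preemergence directed soil spray of test chemical in non-phytotoxic solvent with surfactant; postemergence plants (2–10 cm, one- to two-leaf stage) were sprayed with the same formulation. After about 10 days in greenhouse, injury was rated visually versus untreated controls, 0 (no effect) to 100 (complete control).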

[3] = tested on: wheat; test: Test A pre-/postemergence herbicide test; assay type: in vivo, Triticum aestivum
In short: as §1

[4] = tested on: wheat (winter wheat); test: Test C pre-/postemergence herbicide test; assay type: in vivo, Triticum aestivum
In short: (§2)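 Visual rating, 0 (no effect) to 100 (complete control), versus untreated controls after 13 to 15 days in the greenhouse. Pre: seeds in loam/sand, sprayed at planting. Post: 1- to 4-leaf plants (2 to 18 cm) in peat-based mix. Compounds in non-phytotoxic solvent plus surfactant.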

[5] = tested on: galium; test: Test C pre-/postemergence herbicide test; assay type: in vivo, Galium aparine
In short: as §2

[6] = tested on: nutsedge, yellow; test: Test C pre-/postemergence herbicide test; assay type: in vivo, Cyperus esculentus
In short: as §2

[7] = tested on: blackgrass; test: Test C pre-/postemergence herbicide test; assay type: in vivo, Alopecurus myosuroides; settings: for Blackgrass plant response rating: scale 0 to 100, 0 is no effect and 100 is complete control
In short: as §2

[8] = tested on: pigweed; test: Test A pre-/postemergence herbicide test; assay type: in vivo, Amaranthus retroflexus
In short: as §1

[9] = tested on: ryegrass, Italian; test: Test C pre-/postemergence herbicide test; assay type: in vivo, Lolium multiflorum
In short: as §2

[10] = tested on: oilseed rape; test: Test C pre-/postemergence herbicide test; assay type: in vivo, Brassica napus
In short: as §2

[11] = Preemergence, 125 g ai/ha, visual rating on 0 to 100 scale (0 no effect, 100 complete control)
[12] = Postemergence, 31 g ai/ha, scale 0 (no effect) to 100 (complete control)
[13] = Postemergence, 62 g ai/ha, scale 0 to 100 (0 no effect, 100 complete control)
[14] = Postemergence, 125 g ai/ha, scale 0 to 100 (0 no effect, 100 complete control)
[15] = Postemergence, 250 g ai/ha, scale 0 to 100 (0 no effect, 100 complete control)
[16] = Preemergence, 31 g ai/ha, scale 0 to 100, 0 is no effect and 100 is complete control
[17] = Preemergence, 62 g ai/ha, scale 0 to 100
[18] = Preemergence, 125 g ai/ha, scale 0 to 100 (0 no effect, 100 complete control)
[19] = 125 g ai/ha, visual rating, 0 to 100 scale, 0 no effect, 100 complete control, approximately 10 days, preemergence
[20] = Postemergence, 125 g ai/ha, 0 to 100 scale, 0 is no effect, 100 is complete control
[21] = preemergence, 500 g ai/ha, 0 to 100 scale, 0 is no effect and 100 is complete control
[22] = Preemergence, 62 g ai/ha, scale 0 to 100 (0 no effect, 100 complete control)

Structure (SMILES): O=C1NCC(c2ccc(C(F)(F)F)cc2)C1C(=O)Nc1cccc(F)c1F (stereo not drawn) [Compound 80, N-(2,3-difluorophenyl)-2-oxo-4-[4-(trifluoromethyl)phenyl]-3-pyrrolidinecarboxamide]
- Plant response rating, Ducksalad ([1]; 250 g ai/ha): 75
- pest or weed control at 125 g/ha ([2]; Echinochloa crus-galli, post-emergence, 240 h, Postemergence, 125 g ai/ha, 0 to 100 scale, 0 no effect, 100 complete control, read-out: Plant response rating, Barnyardgrass): 80%
- pest or weed control at 500 g/ha ([2]; Echinochloa crus-galli, post-emergence, 240 h, Postemergence, 500 g ai/ha, read-out: Plant response rating, Barnyardgrass): 80%
- pest or weed control at 500 g/ha ([2]; Echinochloa crus-galli, pre-emergence, 240 h, preemergence, 500 g ai/ha, read-out: Plant response rating, Barnyardgrass): 80%
- Barnyardgrass plant response rating [2, 11]: 80
- Wheat plant response rating [3, 11]: 0
- plant injury at 125 g/ha ([3]; Triticum aestivum, post-emergence, 240 h, Postemergence, 125 g ai/ha, 0 to 100 scale, 0 no effect, 100 complete control, read-out: Plant response rating, Wheat): 40%
- plant injury at 500 g/ha ([3]; Triticum aestivum, post-emergence, 240 h, Postemergence, 500 g ai/ha, 0 to 100 scale (0 no effect, 100 complete control), read-out: Plant response rating, Wheat): 50%
- plant injury at 500 g/ha ([3]; Triticum aestivum, pre-emergence, 240 h, preemergence, 500 g ai/ha, 0 to 100 scale, read-out: Plant response rating, Wheat): 20%
- Plant response rating, Wheat [4, 12]: 0
- Plant response rating, Wheat [4, 13]: 0
- Plant response rating, Wheat [4, 14]: 0
- Plant response rating, Wheat [4, 15]: 0
- Wheat plant response rating [4, 16]: 0
- Plant response rating, Wheat [4, 17]: 5
- Plant response rating, Wheat [4, 18]: 80
- Plant response rating (scale of 0 to 100), Wheat ([4]; Preemergence, 250 g ai/ha): 80
- Plant response rating, Galium [5, 12]: 5
- Plant response rating, Galium [5, 13]: 55
- Plant response rating, Galium [5, 14]: 65
- Plant response rating, Galium [5, 15]: 65
- Galium plant response rating [5, 16]: 5
- Plant response rating, Galium [5, 17]: 90
- Plant response rating, Galium [5, 18]: 90
- Plant response rating (scale of 0 to 100), Galium ([5]; Preemergence, 250 g ai/ha): 90
- Plant response rating, Nutsedge, Yellow [6, 12]: 0
- Plant response rating, Nutsedge, Yellow [6, 13]: 0
- Plant response rating, Nutsedge, Yellow [6, 14]: 0
- Plant response rating, Nutsedge, Yellow [6, 15]: 0
- Nutsedge, Yellow plant response rating [6, 16]: 0
- Plant response rating, Nutsedge, Yellow [6, 17]: 0
- Plant response rating, Nutsedge, Yellow [6, 18]: 0
- Plant response rating (scale of 0 to 100), Nutsedge, Yellow ([6]; Preemergence, 250 g ai/ha): 10
- Plant response rating, Blackgrass [7, 12]: 0
- Plant response rating, Blackgrass [7, 13]: 0
- Plant response rating, Blackgrass [7, 14]: 0
- Plant response rating, Blackgrass [7, 15]: 5
- Blackgrass plant response rating ([7]; Preemergence, 31 g ai/ha): 30
- Plant response rating, Blackgrass [7, 17]: 80
- Plant response rating, Blackgrass [7, 18]: 85
- Plant response rating (scale of 0 to 100), Blackgrass ([7]; Preemergence, 250 g ai/ha): 90
- pest or weed control at 125 g/ha ([8]; Amaranthus retroflexus, post-emergence, 240 h, Postemergence, 125 g ai/ha, 0 to 100 scale, 0 no effect, 100 complete control, read-out: Plant response rating, Pigweed): 60%
- pest or weed control at 500 g/ha ([8]; Amaranthus retroflexus, post-emergence, 240 h, Postemergence, 500 g ai/ha, 0 to 100 scale (0 no effect, 100 complete control), read-out: Plant response rating, Pigweed): 70%
- pest or weed control at 500 g/ha ([8]; Amaranthus retroflexus, pre-emergence, 240 h, preemergence, 500 g ai/ha, 0 to 100 scale, read-out: Plant response rating, Pigweed): 80%
- Pigweed plant response rating [8, 11]: 60
- Plant response rating, Ryegrass, Italian [9, 12]: 0
- Plant response rating, Ryegrass, Italian [9, 13]: 0
- Plant response rating, Ryegrass, Italian [9, 14]: 0
- Plant response rating, Ryegrass, Italian [9, 15]: 0
- Ryegrass, Italian plant response rating [9, 16]: 0
- Plant response rating, Ryegrass, Italian [9, 17]: 40
- Plant response rating, Ryegrass, Italian [9, 18]: 40
- Plant response rating (scale of 0 to 100), Ryegrass, Italian ([9]; Preemergence, 250 g ai/ha): 45
- Plant response rating, Oilseed Rape [10, 12]: 0
- Plant response rating, Oilseed Rape [10, 13]: 0
- Plant response rating, Oilseed Rape [10, 14]: 20
- Plant response rating, Oilseed Rape [10, 15]: 60
- Oilseed Rape plant response rating [10, 16]: 5
- Plant response rating, Oilseed Rape [10, 17]: 85
- Plant response rating, Oilseed Rape [10, 18]: 90
- Plant response rating (scale of 0 to 100), Oilseed Rape ([10]; Preemergence, 250 g ai/ha): 90

Structure (SMILES): O=C1NCC(c2ccc(Cl)cc2)C1C(=O)Nc1cccc(F)c1F (stereo not drawn) [Compound 218]
- Plant response rating, Ducksalad ([1]; 500 g ai/ha): 100
- Plant response rating, Barnyardgrass [2, 19]: 80
- Plant response rating, Barnyardgrass [2, 20]: 60
- Barnyardgrass plant response rating (0 to 100 scale, 0 is no effect, 100 is complete control) ([2]; Postemergence, 500 g ai/ha): 90
- Plant response rating, Barnyardgrass [2, 21]: 90
- Plant response rating, Wheat [3, 20]: 20
- Wheat plant response rating (0 to 100 scale, 0 is no effect, 100 is complete control) ([3]; Postemergence, 500 g ai/ha): 50
- Wheat plant response rating [4, 16]: 0
- Wheat plant response rating [4, 22]: 0
- Plant response rating, Wheat [4, 18]: 0
- Plant response rating (scale of 0 to 100), Wheat ([4]; Preemergence, 250 g ai/ha): 10
- Galium plant response rating [5, 16]: 0
- Galium plant response rating [5, 22]: 0
- Plant response rating, Galium [5, 18]: 85
- Plant response rating (scale of 0 to 100), Galium ([5]; Preemergence, 250 g ai/ha): 90
- Nutsedge, Yellow plant response rating [6, 16]: 0
- Nutsedge, Yellow plant response rating [6, 22]: 0
- Plant response rating, Nutsedge, Yellow [6, 18]: 0
- Plant response rating (scale of 0 to 100), Nutsedge, Yellow ([6]; Preemergence, 250 g ai/ha): 0
- Blackgrass plant response rating ([7]; Preemergence, 31 g ai/ha): 0
- Plant response rating, Blackgrass [7, 17]: 10
- Plant response rating, Blackgrass [7, 18]: 50
- Plant response rating (scale of 0 to 100), Blackgrass ([7]; Preemergence, 250 g ai/ha): 80
- Plant response rating, Pigweed [8, 19]: 30
- Plant response rating, Pigweed [8, 20]: 0
- Pigweed plant response rating (0 to 100 scale, 0 is no effect, 100 is complete control) ([8]; Postemergence, 500 g ai/ha): 40
- Plant response rating, Pigweed [8, 21]: 70
- Ryegrass, Italian plant response rating [9, 16]: 0
- Ryegrass, Italian plant response rating [9, 22]: 0
- Plant response rating, Ryegrass, Italian [9, 18]: 0
- Plant response rating (scale of 0 to 100), Ryegrass, Italian ([9]; Preemergence, 250 g ai/ha): 50
- Oilseed Rape plant response rating [10, 16]: 0
- Oilseed Rape plant response rating [10, 22]: 60
- Plant response rating, Oilseed Rape [10, 18]: 20
- Plant response rating (scale of 0 to 100), Oilseed Rape ([10]; Preemergence, 250 g ai/ha): 70
